Experiments:
[1] = Oscillating rheology, strain sweep; format: physicochemical; settings: 2 wt % gels in DMEM, formed for 30 minutes
Experimental: Oscillating rheology by the parallel plates method (radius=25 mm) was performed on 400 μl gels to assess the mechanical strengths of gels. Time sweeps were performed to evaluate kinetics of formation at a constant strain rate of 1% and frequency of 1 rad/s. Strain sweeps were performed ranging from 1-100% strain in increments of 2% at a constant frequency of 1 rad/s. Cross-over of G′ and G″ was used to determine the gel point and point of breakdown. Time sweeps were initiated immediately after mixing the solutions that lead to DPA hydrogel formation. In the strain sweeps, the gels were allowed to form on the plate for 30 minutes before the measurement is initiated.
Strains sweeps were performed on 2 wt % Gly-Phe-Gly-Phe-Gly-Phe-Gly-Gln-Gln-Ser (SEQ ID NO: 8), Gly-Phe-Gly-Phe-Gly-Phe-Gly-Gln-Gly-Ser (SEQ ID NO: 12) and Gly-Phe-Gly-Phe-Gly-Phe-Gly-Asn-Asn-Ser (SEQ ID NO: 11) gels in DMEM (FIG. 8). Gels were allowed to form for 30 minutes before the experiment was initiated.

[2] = tested on: human internal mammary artery derived cells (IMACs); assay: Cell viability of encapsulated IMACs in DPA gels (Live/Dead); format: cell-based; settings: 2% DPA gel
Experimental: The viability and proliferation of cells in the gels was evaluated by encapsulating human internal mammary artery derived cells (IMACs) in the gels. IMACs were isolated as described in copending U.S. patent application Ser. No. 12/885,855. Cells were thawed from storage and cultured for four days in advanced DMEM/F12 media. After four days, the cells were trypsinized and counted by the Guava ViaCount (Millipore, Billerica, Mass.) methodology. Cells were re-suspended in advanced DMEM/F12 media at a density of 1,000,000 cells/ml. Encapsulation of the cells in the gels was achieved by adding 100 μl cell suspension to 100 μl of a 4 wt % DPA solution in ultrapure in a 24 well plate, resulting in a final DPA concentration of 2%. The gels were incubated for 1 h at 37° C., 5% CO2 after which 1000 μl media was added on top of the gel. Cells were incubated at 37° C., 5% CO2. Every 3-4 days of culture, 500 μl media was replaced. The cells were cultured for 3 weeks and cells were assessed after 1, 2 and 3 weeks with Live/Dead. […] The IMAC cells appear to have high motility in these gels as evidenced by the channels that they create in the gels.

CCCCCCCCCCCCCCCC(=O)NC(C(=O)NCC(=O)N[C@@H](Cc1ccccc1)C(=O)NCC(=O)N[C@@H](Cc1ccccc1)C(=O)NCC(=O)N[C@@H](Cc1ccccc1)C(=O)NCC(=O)N[C@@H](CCC(N)=O)C(=O)N[C@@H](CCC(N)=O)C(=O)N[C@@H](CO)C(=O)O)C(=O)NCC(=O)N[C@@H](Cc1ccccc1)C(=O)NCC(=O)N[C@@H](Cc1ccccc1)C(=O)NCC(=O)N[C@@H](Cc1ccccc1)C(=O)NCC(=O)N[C@@H](CCC(N)=O)C(=O)N[C@@H](CCC(N)=O)C(=O)N[C@@H](CO)C(=O)O [Gly-Phe-Gly-Phe-Gly-Phe-Gly-Gln-Gln-Ser]
Strain at which gel re-crosses the transition point (breakdown) [1]: 99 % strain
Strain at which gel re-crosses the transition point (breakdown) ([1]; listed as Gln-Gln-Ser (SEQ ID NO: 28)): ~100 % strain
Viability of IMAC cells, Live/Dead ([2]; after 1, 2 and 3 weeks): very limited numbers of dead cells were detected
Motility of IMAC cells in the gel ([2]; three weeks, channels created in the gels): high motility

Reference: patent US8546338B2, “Self-assembling hydrogels based on dicephalic peptide amphiphiles” (Johnson & Johnson Consumer Companies, Inc., priority 2010, dated 2013)
